From US12661324B2, “Solid dispersion, pharmaceutical preparations, preparation method, and application thereof” (ASCENTAGE PHARMA (SUZHOU) CO., LTD., priority 2020, dated 2026) come the findings set out here.

Structures are written as SMILES. Converted amounts (≈) assume the structure as drawn.

A short description of data set [1]: Solubility in aqueous medium pH 1-7. Format: physicochemical. As to conditions: aqueous buffer, thermodynamic from solid, 37° C. for 24 hours, acidic or neutral medium pH 1-7. The text has this:
The compound of formula (I) is usually in crystalline form and has very low solubility. […] Even after high humidity (60%) and long-term (12 months) storage, the compound of formula (1) in the solid dispersion of the invention will not be transformed or degraded.

A short description of data set [2]: Drug dissolution test, rotating basket method, 0.2% SDS solution. Format: physicochemical. As to conditions: 500 ml, 100 rpm. The method, then:
Drug dissolution test was performed on the solid dispersion (rotating basket method, 0.2% SDS solution, 500 ml, 100 rpm). […] Under the same conditions, the drug dissolution of API (compound prepared in example 1) in 10 min, 30 min and 60 min were 7%, 13% and 22% respectively.

Data set [3] is described as follows: Equilibrium solubility test. Format: physicochemical. As to conditions: 37 °C, thermodynamic from solid. The method, then: After 2 and 24 hours of high-speed centrifugation, the supernatant was taken, and the concentration of API in the supernatant was determined by high-performance liquid chromatography.
The nature of data set [4]: Pharmacokinetic test in mice (Effect Example 3). Type of data set: in vivo. As to conditions: mouse, plasma, po, male mice, single gavage. The method, then: Four groups of male mice were randomly divided into two groups: test article 1 (solid dispersion prepared in Example 7 and suspension prepared with reverse osmosis water as solvent), the dosages are 25 mg/kg and 100 mg/kg respectively; test article 2 (API prepared in example 1 and suspension prepared with aqueous solution containing 0.2% HPMC-E5), the dosages are 25 mg/kg and 100 mg/kg, respectively. The animals in each group were administered by single gavage.
All animals collected blood samples and separated plasma at 0.087 h, 0.25 h, 0.5 h, 1 h, 2 h, 4 h, 6 h, 8 h and 24 h after administration. All plasma samples were analyzed by LC-MS/Ms. the lower limit of quantification of the method was 10 ng/ml. The plasma concentration data were analyzed by non-compartmental model method (NCA) of metabolic kinetic data analysis software winnonlin8.0.0.3176, and the pharmacokinetic parameters were calculated to evaluate the kinetic characteristics of API in animals after administration.

`O=C(NS(=O)(=O)c1ccc(NC[C@H]2COCCO2)c([N+](=O)[O-])c1)c1ccc(N2CCN(CC3=C(c4ccc(Cl)cc4)CC4(CCC4)CC3)CC2)cc1Oc1cnc2[nH]ccc2c1` [compound of formula (I), 4-{4-{[6-(4-Chloro-phenyl)-spiro[3,5]nonane-6-ene-7-yl]methyl}-piperazine-1-yl}-N-{{3-nitro-4-[((2S)-[1,4]dioxane-2-ylmethyl)-amino]phenyl}sulfonyl}-2-(1H-pyrrolo[2,3-b]pyridin-5-yloxy)-benzamide] returned a solubility at 24 h in data set [1] of 0.3 to 0.6 µg/mL.
On to `O=C(NS(=O)(=O)c1ccc(NC[C@H]2COCCO2)c([N+](=O)[O-])c1)c1ccc(N2CCN(CC3=C(c4ccc(Cl)cc4)CC4(CCC4)CC3)CC2)cc1Oc1cnc2[nH]ccc2c1` [API, 4-{4-{[6-(4-Chloro-phenyl)-spiro[3,5]nonane-6-ene-7-yl]methyl}-piperazine-1-yl}-N-{{3-nitro-4-[((2S)-[1,4]dioxane-2-ylmethyl)-amino]phenyl}sulfonyl}-2-(1H-pyrrolo[2,3-b]pyridin-5-yloxy)-benzamide], for which the drug dissolution in data set [2] (10 min) is reported as 7%. Further, the drug dissolution in data set [2] (30 min) is listed as 13%. In addition, the drug dissolution in data set [2] (60 min) was 22%. In data set [3] (FaSSIF), this molecule displayed a solubility at 2 h of 1.3 µg/mL (≈ 1.47 µM) and a solubility at 24 h of 0.6 µg/mL (≈ 0.68 µM). In data set [3] (FeSSIF), this molecule displayed a solubility at 2 h of 2.5 µg/mL (≈ 2.83 µM) and a solubility at 24 h of 0.5 µg/mL (≈ 0.567 µM). Moreover, in data set [4] (25 mg/kg), the AUC(0-inf) stood at 637 ng·h/mL, the AUC(0-t) turned out to be 384 ng·h/mL, the Cmax was determined as 82.2 ng/mL and the Tmax is 3.33 h. Also, the half-life in data set [4] (25 mg/kg) was 7.41 h. Further, in data set [4] (100 mg/kg), the AUC(0-inf) is 1120 ng·h/mL, the AUC(0-t) is 1100 ng·h/mL, the Cmax was 105 ng/mL and the Tmax came out at 1 h. Further, the half-life in data set [4] (100 mg/kg) is 3.7 h.

By solubility is commonly meant the dissolved amount per volume that the medium holds. A higher solubility goes with much dissolved substance. By half-life is commonly meant the time needed for the level to fall by half in the phase considered.
